Source: ChEMBL document CHEMBL1201861, “Genomics of Drug Sensitity in Cancer screening data, Wellcome Trust Sanger Institute”

Tests used:
Test in all cases: cells
Settings in all cases: Homo sapiens
COLO-741 = type: functional, cell-based
Description: SANGER: Inhibition of human COLO-741 cell growth in a cell viability assay.

COLO-824 = type: functional, cell-based
Description: SANGER: Inhibition of human COLO-824 cell growth in a cell viability assay.

DU-4475 = type: functional, cell-based
Description: SANGER: Inhibition of human DU-4475 cell growth in a cell viability assay.

ES4 = type: functional, cell-based;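 note: growth inhibition of human ES4 cells, read out by a cell viability assay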
Description: SANGER: Inhibition of human ES4 cell growth in a cell viability assay.

ES6 = type: functional, cell-based;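 note: growth inhibition of human ES6 cells, read out with a cell viability assay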
Description: SANGER: Inhibition of human ES6 cell growth in a cell viability assay.

ETK-1 = type: functional, cell-based;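 note: growth inhibition of human ETK-1 cells, read out with a cell viability assay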
Description: SANGER: Inhibition of human ETK-1 cell growth in a cell viability assay.

EW-11 = type: functional, cell-based;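 note: growth inhibition of human EW-11 cells, measured with a cell viability assay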
Description: SANGER: Inhibition of human EW-11 cell growth in a cell viability assay.

EW-13 = type: functional, cell-based;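 note: growth inhibition of EW-13 cells, read out with a cell viability assay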
Description: SANGER: Inhibition of human EW-13 cell growth in a cell viability assay.

EW-16 = type: functional, cell-based;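 note: growth inhibition of human EW-16 cells, read out as cell viability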
Description: SANGER: Inhibition of human EW-16 cell growth in a cell viability assay.

FTC-133 = type: functional, cell-based
GI-1 = type: functional, cell-based;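 note: growth inhibition of human GI-1 cells, measured with a cell viability readout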
Description: SANGER: Inhibition of human GI-1 cell growth in a cell viability assay.

HCE-T = type: functional, cell-based;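 note: cell viability assay read-out, reporting inhibition of HCE-T cell growth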
Description: SANGER: Inhibition of human HCE-T cell growth in a cell viability assay.

HEL = type: functional, cell-based;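 note: growth inhibition of HEL cells, read out with a cell viability assay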
Description: SANGER: Inhibition of human HEL cell growth in a cell viability assay.

HT1197 = type: functional, cell-based, HT-1197
Description: SANGER: Inhibition of human HT-1197 cell growth in a cell viability assay.

KE-37 = type: functional, cell-based;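 note: growth inhibition of KE-37 cells, read out with a cell viability assay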
Description: SANGER: Inhibition of human KE-37 cell growth in a cell viability assay.

KURAMOCHI = type: functional, cell-based;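 note: growth inhibition of KURAMOCHI cells, read out with a cell viability assay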
Description: SANGER: Inhibition of human KURAMOCHI cell growth in a cell viability assay.

KYSE-150 cell line = type: functional, cell-based;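 note: growth inhibition of human KYSE-150 cells, read out with a cell viability assay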
Description: SANGER: Inhibition of human KYSE-150 cell growth in a cell viability assay.

LB373-MEL-D = type: functional, cell-based;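 note: growth inhibition of the cell line, read out in a cell viability assay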
Description: SANGER: Inhibition of human LB373-MEL-D cell growth in a cell viability assay.

LNCaP-Clone-FGC = type: functional, cell-based
Description: SANGER: Inhibition of human LNCaP-Clone-FGC cell growth in a cell viability assay.

LS-123 = type: functional, cell-based
Description: SANGER: Inhibition of human LS-123 cell growth in a cell viability assay.

LS-513 = type: functional, cell-based
Description: SANGER: Inhibition of human LS-513 cell growth in a cell viability assay.

MFH-ino = type: functional, cell-based;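 note: growth inhibition of human MFH-ino cells, read out by a cell viability assay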
Description: SANGER: Inhibition of human MFH-ino cell growth in a cell viability assay.

MIA PaCa-2 = type: functional, cell-based;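 note: growth inhibition of MIA PaCa-2 cells, read out with a cell viability assay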
Description: SANGER: Inhibition of human MIA-PaCa-2 cell growth in a cell viability assay.

MKN-1 = type: functional, cell-based;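 note: growth inhibition of human MKN1 cells, read out by a cell viability measurement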
Description: SANGER: Inhibition of human MKN1 cell growth in a cell viability assay.

MN-60 = type: functional, cell-based;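 note: growth inhibition of the MN-60 cell line, determined with a cell viability assay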
Description: SANGER: Inhibition of human MN-60 cell growth in a cell viability assay.

MPP-89 = type: functional, cell-based;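 note: growth inhibition of human MPP-89 cells, read out with a cell viability assay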
Description: SANGER: Inhibition of human MPP-89 cell growth in a cell viability assay.

MZ1-PC = type: functional, cell-based;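 note: cell viability assay measuring growth inhibition of human MZ1-PC cells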
Description: SANGER: Inhibition of human MZ1-PC cell growth in a cell viability assay.

MeWo = type: functional, cell-based;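 note: growth inhibition of MeWo cells, determined by a cell viability readout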
Description: SANGER: Inhibition of human Mewo cell growth in a cell viability assay.

NB5 = type: functional, cell-based;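 note: growth inhibition of NB5 cells, read out as cell viability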
Description: SANGER: Inhibition of human NB5 cell growth in a cell viability assay.

NCI-H1299 = type: functional, cell-based;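 note: growth inhibition of human NCI-H1299 cells, read out by a cell viability assay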
Description: SANGER: Inhibition of human NCI-H1299 cell growth in a cell viability assay.

NCI-H1304 = type: functional, cell-based;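 note: growth inhibition of the cancer cell line, measured in a cell viability assay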
Description: SANGER: Inhibition of human NCI-H1304 cell growth in a cell viability assay.

NCI-H1648 = type: functional, cell-based;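 note: cell viability assay measuring inhibition of NCI-H1648 cell growth, from the Sanger screening data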
Description: SANGER: Inhibition of human NCI-H1648 cell growth in a cell viability assay.

NCI-H446 = type: functional, cell-based;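 note: growth inhibition of NCI-H446 cells determined by a cell viability assay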
Description: SANGER: Inhibition of human NCI-H446 cell growth in a cell viability assay.

NOMO-1 = type: functional, cell-based;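 note: growth inhibition of human NOMO-1 cells measured by a cell viability assay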
Description: SANGER: Inhibition of human NOMO-1 cell growth in a cell viability assay.

OCI-AML2 = type: functional, cell-based;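 note: growth inhibition of OCI-AML2 cells, read out with a cell viability assay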
Description: SANGER: Inhibition of human OCI-AML2 cell growth in a cell viability assay.

OMC-1 = type: functional, cell-based;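 note: growth inhibition of the OMC-1 cell line, measured by a cell viability assay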
Description: SANGER: Inhibition of human OMC-1 cell growth in a cell viability assay.

OS-RC-2 = type: functional, cell-based;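 note: growth inhibition of human OS-RC-2 cells, measured by a cell viability assay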
Description: SANGER: Inhibition of human OS-RC-2 cell growth in a cell viability assay.

OVCAR-5 = type: functional, cell-based;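 note: growth inhibition of human OVCAR-5 cells, read out with a cell viability assay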
Description: SANGER: Inhibition of human OVCAR-5 cell growth in a cell viability assay.

RS4-11 = type: functional, cell-based;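 note: growth inhibition of RS4-11 cells, read out by a cell viability assay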
Description: SANGER: Inhibition of human RS4-11 cell growth in a cell viability assay.

SF-268 = type: functional, cell-based;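 note: growth inhibition of SF-268 cells determined with a cell viability assay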
Description: SANGER: Inhibition of human SF268 cell growth in a cell viability assay.

SK-MEL-1 = type: functional, cell-based;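 note: growth inhibition of human SK-MEL-1 cells, read out by a cell viability assay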
Description: SANGER: Inhibition of human SK-MEL-1 cell growth in a cell viability assay.

SK-OV-3 = type: functional, cell-based;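 note: growth inhibition of SK-OV-3 human cells, read out with a cell viability assay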
Description: SANGER: Inhibition of human SK-OV-3 cell growth in a cell viability assay.

SK-UT-1 = type: functional, cell-based;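 note: growth inhibition of SK-UT-1 cells, measured by a cell viability assay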
Description: SANGER: Inhibition of human SK-UT-1 cell growth in a cell viability assay.

SW 954 = type: functional, cell-based;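 note: growth inhibition of SW954 human cancer cells, read out as cell viability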
Description: SANGER: Inhibition of human SW954 cell growth in a cell viability assay.

A498 = type: functional, cell-based;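 note: growth inhibition of human A498 cells, read out with a cell viability assay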
Description: SANGER: Inhibition of human A498 cell growth in a cell viability assay.

AGS = type: functional, cell-based;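 note: growth inhibition of AGS cells, determined with a cell viability assay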
Description: SANGER: Inhibition of human AGS cell growth in a cell viability assay.

ATN-1 = type: functional, cell-based;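 note: growth inhibition of human ATN-1 cells, read out with a cell viability assay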
Description: SANGER: Inhibition of human ATN-1 cell growth in a cell viability assay.

BB49-HNC = type: functional, cell-based;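 note: cell viability assay read-out, reported as inhibition of BB49-HNC cell growth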
Description: SANGER: Inhibition of human BB49-HNC cell growth in a cell viability assay.

BFTC-909 = type: functional, cell-based
Description: SANGER: Inhibition of human BFTC-909 cell growth in a cell viability assay.

BT-474 = type: functional, cell-based
Description: SANGER: Inhibition of human BT-474 cell growth in a cell viability assay.

C2BBe1 = type: functional, cell-based;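 note: growth inhibition of C2BBe1 cells, read out through a viability assay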
Description: SANGER: Inhibition of human C2BBe1 cell growth in a cell viability assay.

C8166 = type: functional, cell-based;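 note: growth inhibition of human C8166 cells measured by a cell viability assay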
Description: SANGER: Inhibition of human C8166 cell growth in a cell viability assay.

TE-6 = type: functional, cell-based;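 note: growth inhibition of TE-6 cells, read out with a cell viability assay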
Description: SANGER: Inhibition of human TE-6 cell growth in a cell viability assay.

TK-10 = type: functional, cell-based;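 note: growth inhibition of TK-10 cells, read out in a cell viability assay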
Description: SANGER: Inhibition of human TK10 cell growth in a cell viability assay.

VA-ES-BJ = type: functional, cell-based;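 note: growth inhibition of the VA-ES-BJ cell line, read out by a cell viability assay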
Description: SANGER: Inhibition of human VA-ES-BJ cell growth in a cell viability assay.

no-10 = type: functional, cell-based;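 note: growth inhibition of no-10 cells, read out with a cell viability assay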
Description: SANGER: Inhibition of human no-10 cell growth in a cell viability assay.

no-11 = type: functional, cell-based;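 note: growth inhibition of human NO-11 cells, read out with a cell viability assay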
Description: SANGER: Inhibition of human no-11 cell growth in a cell viability assay.

CCRF-CEM = type: functional, cell-based;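 note: inhibition of CCRF-CEM cell growth, measured by a cell viability assay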
Description: SANGER: Inhibition of human CCRF-CEM cell growth in a cell viability assay.

LU-139 = type: functional, cell-based
Description: SANGER: Inhibition of human LU-139 cell growth in a cell viability assay.

ML-2 = type: functional, cell-based;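 note: growth inhibition of ML-2 cells, measured with a cell viability readout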
Description: SANGER: Inhibition of human ML-2 cell growth in a cell viability assay.

SNU-5 = type: functional, cell-based
Description: SANGER: Inhibition of human NCI-SNU-5 cell growth in a cell viability assay.

With `O=c1cc(N2CCOCC2)oc2c(-c3cccc4c3sc3ccccc34)cccc12` the IC50 (COLO-741) was > 2000 nM, the IC50 (COLO-824) was > 2000 nM and the IC50 (DU-4475) was > 2000 nM. For the same compound, the IC50 (ES4) was > 2000 nM, the IC50 (ES6) was > 2000 nM and the IC50 (ETK-1) was > 2000 nM. For the same compound, the IC50 (EW-11) was > 2000 nM, the IC50 (EW-13) was > 2000 nM and the IC50 (EW-16) was > 2000 nM. For the same compound, the IC50 (FTC-133) was > 2000 nM, the IC50 (GI-1) was > 2000 nM and the IC50 (HCE-T) was > 2000 nM. The IC50 (HEL) was > 2000 nM, the IC50 (HT1197) was > 2000 nM and the IC50 (KE-37) was > 2000 nM. For the same compound, the IC50 (KURAMOCHI) was > 2000 nM, the IC50 (KYSE-150 cell line) was > 2000 nM and the IC50 (LB373-MEL-D) was > 2000 nM. The IC50 (LNCaP-Clone-FGC) was > 2000 nM, the IC50 (LS-123) was > 2000 nM and the IC50 (LS-513) was > 2000 nM. The IC50 (MFH-ino) was > 2000 nM, the IC50 (MIA PaCa-2) was > 2000 nM and the IC50 (MKN-1) was > 2000 nM. For the same compound, the IC50 (MN-60) was > 2000 nM, the IC50 (MPP-89) was > 2000 nM and the IC50 (MZ1-PC) was > 2000 nM. For the same compound, the IC50 (MeWo) was > 2000 nM, the IC50 (NB5) was > 2000 nM and the IC50 (NCI-H1299) was > 2000 nM. The IC50 (NCI-H1304) was > 2000 nM, the IC50 (NCI-H1648) was > 2000 nM and the IC50 (NCI-H446) was > 2000 nM. For the same compound, the IC50 (NOMO-1) was > 2000 nM, the IC50 (OCI-AML2) was > 2000 nM and the IC50 (OMC-1) was > 2000 nM. For the same compound, the IC50 (OS-RC-2) was > 2000 nM, the IC50 (OVCAR-5) was > 2000 nM and the IC50 (RS4-11) was > 2000 nM. For the same compound, the IC50 (SF-268) was > 2000 nM, the IC50 (SK-MEL-1) was 1790 nM and the IC50 (SK-OV-3) was > 2000 nM. The IC50 (SK-UT-1) was > 2000 nM, the IC50 (SW 954) was > 2000 nM and the IC50 (A498) was > 2000 nM. For the same compound, the IC50 (AGS) was > 2000 nM, the IC50 (ATN-1) was > 2000 nM and the IC50 (BB49-HNC) was > 2000 nM. For the same compound, the IC50 (BFTC-909) was > 2000 nM, the IC50 (BT-474) was > 2000 nM and the IC50 (C2BBe1) was > 2000 nM. For the same compound, the IC50 (C8166) was > 2000 nM, the IC50 (TE-6) was > 2000 nM and the IC50 (TK-10) was > 2000 nM. The IC50 (VA-ES-BJ) was > 2000 nM, the IC50 (no-10) was > 2000 nM and the IC50 (no-11) was > 2000 nM. The IC50 (CCRF-CEM) was > 2000 nM.
For `CCCS(=O)(=O)Nc1ccc(F)c(C(=O)c2c[nH]c3ncc(Cl)cc23)c1F` [PLX-4720], the IC50 (COLO-741) was 8020 nM, the IC50 (COLO-824) was > 10000 nM and the IC50 (DU-4475) was 74.6 nM. The IC50 (ES4) was > 10000 nM, the IC50 (ES6) was > 10000 nM and the IC50 (ETK-1) was > 10000 nM. The IC50 (EW-11) was > 10000 nM, the IC50 (EW-13) was > 10000 nM and the IC50 (EW-16) was > 10000 nM. For the same compound, the IC50 (FTC-133) was > 10000 nM, the IC50 (GI-1) was > 10000 nM and the IC50 (HCE-T) was > 10000 nM. For the same compound, the IC50 (HEL) was > 10000 nM, the IC50 (HT1197) was > 10000 nM and the IC50 (KE-37) was > 10000 nM. The IC50 (KURAMOCHI) was > 10000 nM, the IC50 (KYSE-150 cell line) was > 10000 nM and the IC50 (LB373-MEL-D) was > 10000 nM. For the same compound, the IC50 (LNCaP-Clone-FGC) was > 10000 nM, the IC50 (LS-123) was > 10000 nM and the IC50 (LS-513) was > 10000 nM. The IC50 (LU-139) was > 10000 nM, the IC50 (MFH-ino) was > 10000 nM and the IC50 (MIA PaCa-2) was > 10000 nM. The IC50 (MKN-1) was > 10000 nM, the IC50 (ML-2) was > 10000 nM and the IC50 (MN-60) was > 10000 nM. For the same compound, the IC50 (MPP-89) was > 10000 nM, the IC50 (MZ1-PC) was > 10000 nM and the IC50 (MeWo) was > 10000 nM. For the same compound, the IC50 (NB5) was > 10000 nM, the IC50 (NCI-H1299) was > 10000 nM and the IC50 (NCI-H1304) was > 10000 nM. The IC50 (NCI-H1648) was > 10000 nM, the IC50 (NCI-H446) was > 10000 nM and the IC50 (SNU-5) was 2120 nM. For the same compound, the IC50 (NOMO-1) was > 10000 nM, the IC50 (OCI-AML2) was > 10000 nM and the IC50 (OMC-1) was > 10000 nM. For the same compound, the IC50 (OS-RC-2) was > 10000 nM, the IC50 (OVCAR-5) was > 10000 nM and the IC50 (RS4-11) was 9600 nM. The IC50 (SF-268) was > 10000 nM, the IC50 (SK-MEL-1) was > 10000 nM and the IC50 (SK-OV-3) was > 10000 nM. For the same compound, the IC50 (SK-UT-1) was > 10000 nM, the IC50 (SW 954) was > 10000 nM and the IC50 (A498) was > 10000 nM. For the same compound, the IC50 (AGS) was > 10000 nM, the IC50 (ATN-1) was > 10000 nM and the IC50 (BB49-HNC) was > 10000 nM. For the same compound, the IC50 (BFTC-909) was > 10000 nM, the IC50 (BT-474) was > 10000 nM and the IC50 (C2BBe1) was > 10000 nM. The IC50 (C8166) was > 10000 nM, the IC50 (TE-6) was > 10000 nM and the IC50 (TK-10) was > 10000 nM. The IC50 (VA-ES-BJ) was > 10000 nM, the IC50 (no-10) was > 10000 nM and the IC50 (no-11) was > 10000 nM. The IC50 (CCRF-CEM) was > 10000 nM.
